# According to patent US20220305136A1, “ANTI-CTLA4 CONJUGATES” (Ascendis Pharma Oncology Division A/S, priority 2019, published 2022):
# Columns and labels:
# [1] = Plasma pharmacokinetics of CTLA-4 mAB in Wistar rats; type: in vivo; settings: n=3
# Description: This study was performed in order to investigate the plasma pharmacokinetics of CTLA-4 mAB in Wistar rats following subcutaneous administration of transient CTLA-4 mAB-linker-hydrogel prodrug 29b or following subcutaneous or intravenous administration of free CTLA-4 mAB. Animals (n=3 per group) received either a single SC injection of a 29b (1 mg/kg CTLA-4 mAB equivalents) in the neck region or a single SC injection in the neck region or IV injection in the tail vein of an CTLA-4 mAB formulation (1 mg/kg CTLA-4 mAB). At selected time points, 200 μL blood were collected in L^1-Heparin tubes and processed to plasma by centrifugation at 3,000 g for 10 minutes at 4° C.
# CTLA-4 mAB concentrations in rat plasma were determined with a commercial ELISA setup obtained from BioVision Inc. (CA, USA, order number E4384-100). The manufacturer's instructions were followed with minor changes to the protocol. Specifically, the plasma samples were used undiluted (except for samples above the upper limit of quantification which were diluted with blank plasma prior to the measurement) and the sample incubation time was prolonged to 60 minutes.
# Calibration standards of CTLA-4 mAB in blank plasma were prepared as follows: thawed L^1-Heparin Wistar rat plasma was homogenized. The free CTLA-4 mAB formulation was spiked into blank plasma at concentrations between 5,000 ng/mL and 50 ng/mL with additional higher and lower anchor points. These solutions were used for the generation of a calibration curve. Calibration curves were analyzed via a 4-parameter logarithmic fit and 1/Y^2 weighted. The determined CTLA-4 mAB plasma concentrations are depicted in Table 1.
# [2] = tested on: tumor immune cells; experiment: Flow cytometric profiling of tumor immune cells; type: in vivo, C57BL/6 mice with the human CTLA4 gene knocked in; settings: day 7
# Description: (§1) The study was conducted in female C57BL/6 mice with the human CTLA4 gene knocked into the endogenous CTLA4 locus with an age of 6-11 weeks at the day of tumor inoculation. This model is also known as a Human Genetically Engineered Mouse Model or HuGEMM. Mice were subcutaneously implanted with 1×10^6 MC38 tumor cells in the right flank. When tumors to be injected were grown to a mean tumor volume of ˜65 mm^3, mice were randomized into treatment cohorts (day 0) and treated with either: 1) a single 50 μL intratumoral injection of control hydrogel 30 or 2) four total 200 μL intraperitoneal doses of 18 μg given on days 0, 4, 8, and 12 of free CTLA-4 mAB, or 3) a single 50 μL intratumoral injection of 840 μg of CTLA-4 mAB-linker-hydrogel prodrug 29b or 3) a single 50 μL intratumoral injection of 72 μg of CTLA-4 mAB-linker-hydrogel prodrug 29c. Hydrogels were administered as suspensions in 20 mM succinate, 135 mM NaCl, 0.01% Tween20, pH 4.0 buffer.
# Mice were sacrificed 7 days after randomization (D0). Following sacrifice, blood, spleen and tumor were isolated. Spleen samples were dissociated mechanically to generate single suspensions. Tumor samples were enzymatically and mechanically dissociated to generate single cell suspensions. Cell suspensions from spleen and tumor were centrifuged at 300 g for 5 minutes and 2×10^6 cells were used for staining. For whole blood, approximately 100 μL was used for staining. Cells were resuspended in FACS buffer with 1 μg/ml Fc-Block and incubated at 4° C. for 10 minutes in the dark. Surface marker antibody mixtures in FACS buffer were added to each sample and samples were incubated in the dark at 4° C. for 30 minutes. Red blood cell lysis buffer (Bio-gems) was added if needed and cells were further incubated at 4° C. for 10 minutes. Cells were washed twice with FACS buffer then fixed and permeabilized for 30 minutes at room temperature with Fix/Perm buffer (eBioscience). Cells were washed twice in Permeabilization Buffer and stained with intracellular antibodies in Permeabilization buffer for 30 minutes at room temperature. Cells were washed twice in FACS buffer and acquired in the presence of 123count Ebeads (eBioscience). After collection, FACS data was analyzed using FlowJo Version 10.6.1. Compensation was digitally adjusted using single antibody-stained beads, single antibody-stained cells, and fluorescence minus one (FMO) controls. CD4^+ T cells were gated as live, intact CD45+ CD3+ CD4+ events. Tregs were gated as the CD25+ FOXP3+ subset of CD4 T cells. […] The change in the mean percentage of positive cells for indicated populations relative to control treatment was calculated by the formula: mean percentage of positive cells in treated animals—mean percentage of positive cells in control treated animals.
# [3] = tested on: blood immune cells; experiment: Flow cytometric profiling of blood immune cells; type: in vivo, C57BL/6 mice with the human CTLA4 gene knocked in; settings: day 7; doses as E70
# Description: as §1
# (§2) Mice were sacrificed 7 days after randomization (D0). Following sacrifice, blood, spleen and tumor were isolated. Spleen samples were dissociated mechanically to generate single suspensions. Tumor samples were enzymatically and mechanically dissociated to generate single cell suspensions. Cell suspensions from spleen and tumor were centrifuged at 300 g for 5 minutes and 2×10^6 cells were used for staining. For whole blood, approximately 100 μL was used for staining. Cells were resuspended in FACS buffer with 1 μg/ml Fc-Block and incubated at 4° C. for 10 minutes in the dark. Surface marker antibody mixtures in FACS buffer were added to each sample and samples were incubated in the dark at 4° C. for 30 minutes. Red blood cell lysis buffer (Bio-gems) was added if needed and cells were further incubated at 4° C. for 10 minutes. Cells were washed twice with FACS buffer then fixed and permeabilized for 30 minutes at room temperature with Fix/Perm buffer (eBioscience). Cells were washed twice in Permeabilization Buffer and stained with intracellular antibodies in Permeabilization buffer for 30 minutes at room temperature. Cells were washed twice in FACS buffer and acquired in the presence of 123count Ebeads (eBioscience). After collection, FACS data was analyzed using FlowJo Version 10.6.1. Compensation was digitally adjusted using single antibody-stained beads, single antibody-stained cells, and fluorescence minus one (FMO) controls. CD4^+ T cells were gated as live, intact CD45+ CD3+ CD4+ events. Tregs were gated as the CD25+ FOXP3+ subset of CD4 T cells. CD8^+ T cells were gated as live, intact CD45+ CD3+ CD8+ events. Subgates were then defined using the controls mentioned above. The change in the mean percentage of positive cells for indicated populations relative to control treatment was calculated by the formula: mean percentage of positive cells in treated animals—mean percentage of positive cells in control treated animals.
# [4] = tested on: spleen immune cells; experiment: Flow cytometric profiling of spleen immune cells; type: in vivo, C57BL/6 mice with the human CTLA4 gene knocked in; settings: day 7; doses as E70
# Description: as §1, §2
# [5] = tested on: MC38 tumor cells; experiment: In vivo anti-tumor efficacy, MC38 tumor bearing mice (Example 28); set-up: species or system C57BL/6 mice with the human CTLA-4 gene knocked in; settings: CTLA-4 mAB 4 x 210 μg intraperitoneal days 0, 4, 8, 12, 29b single 840 μg intratumoral
# Description: The study was conducted in female C57BL/6 mice with the human CTLA-4 gene knocked into the endogenous CTLA-4 locus with an age of 6-11 weeks at the day of tumor inoculation. This model is also known as a Human Genetically Engineered Mouse Model or HuGEMM. Mice were subcutaneously implanted with 1×10^6 MC38 tumor cells in the right flank. When tumors to be injected were grown to a mean tumor volume of ˜65 mm^3, mice were randomized into treatment cohorts (day 0) and treated with either: 1) a single 50 μL intratumoral injection of control hydrogel 30 or 2) a single 50 μL intratumoral injection of 840 μg of CTLA-4 mAB-linker-hydrogel prodrug 29b or 3) four total 200 μL intraperitoneal doses of 210 μg given on Days 0, 4, 8, and 12 of CTLA-4 mAB. Hydrogels were administered as suspensions in 20 mM succinate, 135 mM NaCl, 0.01% Tween-20, pH 4.0 buffer. Following treatment initiation, anti-tumor efficacy was assessed by determination of tumor volumes at various time points from tumor size measurements with a caliper. Tumor volumes were calculated according to the formula:
# Tumor volume=(L×W^2)×0.5 where L is the length of the tumor and W the width (both in mm). Mice were removed from the study once tumors were greater than 3000 mm^3.
# [6] = tested on: MC38 tumor cells; experiment: In vivo anti-tumor efficacy, MC38 tumor bearing mice (Example 33); set-up: species or system C57BL/6 mice with the human CTLA4 gene knocked in
# Description: The study was conducted in female C57BL/6 mice with the human CTLA4 gene knocked into the endogenous CTLA4 locus with an age of 6-11 weeks at the day of tumor inoculation. This model is also known as a Human Genetically Engineered Mouse Model or HuGEMM. Mice were subcutaneously implanted with 1×10^6 MC38 tumor cells in the right flank. When tumors to be injected were grown to a mean tumor volume of ˜65 mm^3, mice were randomized into treatment cohorts (day 0) and treated with either: 1) a single 50 μL intratumoral injection of control hydrogel 30 or 2) four total 200 μL intraperitoneal doses of 18 μg given on days 0, 4, 8, and 12 of free CTLA-4 mAB, or 3) a single 50 μL intratumoral injection of 840 μg of CTLA-4 mAB-linker-hydrogel prodrug 29b or 3) a single 50 μL intratumoral injection of 72 μg of CTLA-4 mAB-linker-hydrogel prodrug 29c. […] Following treatment initiation, anti-tumor efficacy was assessed by determination of tumor volumes at various time points from tumor size measurements with a caliper. Tumor volumes were calculated according to the formula: Tumor volume=(L×W^2)×0.5 where L is the length of the tumor and W the width (both in mm). […] Percent tumor growth inhibition (TGI) was calculated according to the formula: [1−(Mean Tumor Volume in treated animals)/(Mean Tumor Volume in control animals)]*100.
substance,measurement,setting,value
"CTLA-4 mAB: Monoclonal antibody CTLA-4 mAB (AMO-M6104, CAS No. 477202-00-9) obtained from AbMole Bioscience Inc.",mean CTLA-4 mAB plasma concentration,"[1]; 1 h, 1 mg/kg CTLA-4 mAB (equivalents), subcutaneous, LLOQ 50 ng/mL",170 ng/mL
same,mean CTLA-4 mAB plasma concentration,"[1]; 1 h, 1 mg/kg intravenous",18000 ng/mL
same,mean CTLA-4 mAB plasma concentration,"[1]; 4 h, 1 mg/kg CTLA-4 mAB (equivalents), subcutaneous, LLOQ 50 ng/mL",600 ng/mL
same,mean CTLA-4 mAB plasma concentration,"[1]; 4 h, 1 mg/kg intravenous",14000 ng/mL
same,mean CTLA-4 mAB plasma concentration,"[1]; 24 h, 1 mg/kg CTLA-4 mAB (equivalents), subcutaneous",3700 ng/mL
same,mean CTLA-4 mAB plasma concentration,"[1]; 24 h, 1 mg/kg intravenous",9600 ng/mL
same,mean CTLA-4 mAB plasma concentration,"[1]; 32 h, 1 mg/kg CTLA-4 mAB (equivalents), subcutaneous",4800 ng/mL
same,mean CTLA-4 mAB plasma concentration,"[1]; 32 h, 1 mg/kg intravenous",7500 ng/mL
same,mean CTLA-4 mAB plasma concentration,"[1]; 48 h, 1 mg/kg CTLA-4 mAB (equivalents), subcutaneous",6200 ng/mL
same,mean CTLA-4 mAB plasma concentration,"[1]; 48 h, 1 mg/kg intravenous",6000 ng/mL
same,mean CTLA-4 mAB plasma concentration,"[1]; 72 h, 1 mg/kg CTLA-4 mAB (equivalents), subcutaneous",6900 ng/mL
same,mean CTLA-4 mAB plasma concentration,"[1]; 72 h, 1 mg/kg intravenous",4900 ng/mL
same,mean CTLA-4 mAB plasma concentration,"[1]; 96 h, 1 mg/kg CTLA-4 mAB (equivalents), subcutaneous",6100 ng/mL
same,mean CTLA-4 mAB plasma concentration,"[1]; 96 h, 1 mg/kg intravenous",4000 ng/mL
same,mean CTLA-4 mAB plasma concentration,"[1]; 168 h, 1 mg/kg CTLA-4 mAB (equivalents), subcutaneous",5700 ng/mL
same,mean CTLA-4 mAB plasma concentration,"[1]; 168 h, 1 mg/kg intravenous",3100 ng/mL
same,Increase in Percentage Positive from control hydrogel 30: Tumor CD44++ CD62L− of CD4s,"[2]; CTLA-4 mAB 18 μg doses IP, 29b 840 μg IT, 29c 72 μg IT",10.73%
same,Increase in Percentage Positive from control hydrogel 30: Tumor CD44++ CD62L− of CD8s,[2]; doses as E70,6.51%
same,Increase in Percentage Positive from control hydrogel 30: Tumor CD69+ of CD4s,[2]; doses as E70,2.37%
same,Increase in Percentage Positive from control hydrogel 30: Tumor ICOS+ of CD4s,[2]; doses as E70,13.77%
same,Increase in Percentage Positive from control hydrogel 30: Blood CD4 of T,[3],0.53%
same,Increase in Percentage Positive from control hydrogel 30: Blood CD25+ of CD4,[3],2.88%
same,Increase in Percentage Positive from control hydrogel 30: Blood CD44++ CD62L− of CD4s,[3],15.28%
same,Increase in Percentage Positive from control hydrogel 30: Blood CD69+ of CD4,[3],3.35%
same,Increase in Percentage Positive from control hydrogel 30: Blood CD69+ of Treg,[3],3.69%
same,Increase in Percentage Positive from control hydrogel 30: Blood ICOS+ of CD4s,[3],18.80%
same,Increase in Percentage Positive from control hydrogel 30: Blood ICOS+ of CD8s,[3],9.26%
same,Increase in Percentage Positive from control hydrogel 30: Blood Ki67+ of CD4s,[3],14.64%
same,Increase in Percentage Positive from control hydrogel 30: Blood Treg of CD4,[3],2.22%
same,Increase in Percentage Positive from control hydrogel 30: Spleen CD4 of T,[4],4.90%
same,Increase in Percentage Positive from control hydrogel 30: Spleen CD25+ of CD4,[4],4.38%
same,Increase in Percentage Positive from control hydrogel 30: Spleen CD69+ of CD4,[4],8.33%
same,Increase in Percentage Positive from control hydrogel 30: Spleen CD69+ of Treg,[4],9.17%
same,Increase in Percentage Positive from control hydrogel 30: Spleen ICOS+ of CD8s,[4],3.18%
same,Increase in Percentage Positive from control hydrogel 30: Spleen Ki67+ of CD4s,[4],11.75%
same,Increase in Percentage Positive from control hydrogel 30: Spleen Ki67+ of Tregs,[4],16.97%
same,Increase in Percentage Positive from control hydrogel 30: Spleen Treg of CD4,[4],6.64%
same,Mean Tumor Volume (mm3) Day 20,[5],60.5 mm3
same,Percent Tumor Growth Inhibition,"[6]; day 20, vs control hydrogel 30, doses as E66",97.3%
same,Mean Tumor Volume (mm3),"[6]; day 20, CTLA-4 mAB 4 x 18 μg intraperitoneal days 0, 4, 8, 12, 29b single 840 μg intratumoral, 29c single 72 μg intratumoral",57.1 mm3
